Structures can show the parent of a compound that is named as a salt.
System: E. coli clinical isolates
Test: screen of strains in broth medium containing FAC
Type: cell-based
Design: key to colour: Red, Green, Black or Purple mean strong colour; Red, Green, Black or Purple mean strong colour; Red, Green, Black or Purple mean strong colour; Red, Green, Black or Purple mean strong colour; +/− means less colour than strong; Tr means a trace of colour, less than +/−; — means no colour
Settings: for colour: 37° C. 18 hours
From the text: In order to obtain a fuller picture of the sensitivity of the substrates, they were screened with 100 different clinical isolates of E. coli in a liquid medium containing FAC. The isolates were chosen at random from the Microbiology Department, Freeman Hospital, Newcastle Upon Tyne, UK. The effectiveness of the new substrates was compared with three other media which all contained indoxyl-β-D-glucuronides. One was a commercial medium, CPS ID 3 (bioMérieux SA, Lyon, France). […] This medium was employed as a control. Among the β-D-glucuronidase producing strains of E. coli there is a large variation in the quantity of the enzyme produced and it is almost certain that the CPS ID 3 medium has been rigorously optimised to allow good growth of all the target organisms and maximum expression of the target enzymes. Therefore, two indoxyl glucuronides, X-β-D-glucuronide CHA salt and Rose-β-D-glucuronide CHA salt were also tested in a simple agar medium to allow a direct comparison of the sensitivity of these Indoxyl glucuronides when used in a medium that has not been optimised for the growth of the target organism. The comparison of the results for Rose-β-D-glucuronide and the CPS ID 3 medium was of particular significance as the commercial medium also uses Rose-β-D-glucuronide for the detection of E. coli. For consistency, the four glucuronides were all chosen as their CHA salts. As already stated, it is not anticipated that the salt form is critical to their performance. Currently. X-β-D-glucuronide is often used as either the CHA salt or the sodium salt. Brenner and colleagues [K. P. Brenner et al, Appl. Environ. Microbiol., 59, 3534-3544, (1993)] found no difference in the performance of the CHA and sodium salt forms with their application using indoxyl-β-D-glucuronide, neither in respect of colour development nor in the recovery of E. coli.
The two indoxyl glucuronides used produce insoluble endpoints following hydrolysis, as does the CPS ID 3 medium. It was therefore necessary to test these two substrates on agar plates. In contrast, catechol-β-D-glucuronide (1) and DHN-β-D-glucuronide (2b) give much more soluble endpoints best suited to liquid media and were therefore tested in a broth medium. Each broth was prepared using proteose peptone (Oxoid, Basingstoke, UK) (2 g), NaCl (1 g) and FAC (100 mg) in DI water (180 mL). This mixture was autoclaved and cooled to room temperature before being dispensed into bijoux (100×1.8 mL). Catechol β-D-glucuronide CHA salt (1) or DHN-β-D-glucuronide CHA salt (2b) (60 mg) were each dissolved in water (20 mL) and filtered to sterilize before being aseptically dispensed into successive bijoux (0.2 mL) containing the broth solution. The broth/substrate solutions were then inoculated with bacterial suspensions made up to 0.5 McFarland standard (2 μL per bijoux). X-β-D-glucuronide CHA salt (Glycosynth Ltd, Warrington, UK) (10 mg) was dissolved in NMP (200 μL). Rose-β-D-glucuronide CHA salt (Glycosynth Ltd, Warrington, UK) (20 mg) was dissolved in NMP (200 μL). These solutions were then added to Columbia agar (Oxoid, Basingstoke, UK) (100 mL) and inoculated with bacterial suspensions made up to 0.5 McFarland standard (1 μL). The plates and broths were incubated at 37° C. for 18 hours in air.

[1] = 100 E. coli strains after 18 h incubation, broth

SMILES: O=C(O)C1OC(Oc2cc3ccccc3cc2O)C(O)C(O)C1O [Compound 2b, DHN-β-D-Glucuronide CHA Salt]
- % Sensitivity [1]: 82%
- Negative strains [1]: 18
- Positive strains [1]: 82
- colour (E. coli 260262P, broth): Purple
- colour (E. coli 260280Z, broth): Purple
- colour (E. coli 260310H, broth): Purple
- colour (E. coli 260313A, broth): —
- colour (E. coli 260316T, broth): —
- colour (E. coli 260327V, broth): Purple
- colour (E. coli 260330Y, broth): Purple
- colour (E. coli 260333P, broth): —
- colour (E. coli 260345F, broth): Purple
- colour (E. coli 260348K, broth): Purple
- colour (E. coli 260354W, broth): Purple
- colour (E. coli 260364H, broth): —
- colour (E. coli 260370C, broth): Purple
- colour (E. coli 260375E, broth): Purple
- colour (E. coli 260390B, broth): —
- colour (E. coli 260396Z, broth): Purple
- colour (E. coli 260398Q, broth): Purple
- colour (E. coli 260400N, broth): —
- colour (E. coli 260401Q, broth): Purple
- colour (E. coli 260402H, broth): Purple
- colour (E. coli 260404W, broth): Purple
- colour (E. coli 260405P, broth): Purple
- colour (E. coli 260406A, broth): —
- colour (E. coli 260406Y, broth): Purple
- colour (E. coli 260407F, broth): Purple
- colour (E. coli 260408C, broth): Purple
- colour (E. coli 260411Z, broth): Purple
- colour (E. coli 260412Q, broth): Purple
- colour (E. coli 260414H, broth): Purple
- colour (E. coli 260415Y, broth): Purple
- colour (E. coli 260416W, broth): Purple
- colour (E. coli 260417P, broth): Purple
- colour (E. coli 260422Y, broth): Purple
- colour (E. coli 260424P, broth): Purple
- colour (E. coli 260425A, broth): Purple
- colour (E. coli 260426F, broth): Purple
- colour (E. coli 260428T, broth): Purple
- colour (E. coli 260431N, broth): Purple
- colour (E. coli 260432E, broth): Purple
- colour (E. coli 260433H, broth): Purple
- colour (E. coli 260434Y, broth): Purple
- colour (E. coli 260435W, broth): Purple
- colour (E. coli 260436P, broth): Purple
- colour (E. coli 260437A, broth): —
- colour (E. coli 260438F, broth): Purple
- colour (E. coli 260439C, broth): Purple
- colour (E. coli 260440S, broth): Purple
- colour (E. coli 260441G, broth): Purple
- colour (E. coli 260458Y, broth): Purple
- colour (E. coli 260459W, broth): Purple
- colour (E. coli 260463D, broth): Purple
- colour (E. coli 260464G, broth): Purple
- colour (E. coli 260471B, broth): —
- colour (E. coli 260478N, broth): —
- colour (E. coli 260479Q, broth): Purple
- colour (E. coli 260480M, broth): Purple
- colour (E. coli 260481J, broth): Purple
- colour (E. coli 260483R, broth): —
- colour (E. coli 260485D, broth): Purple
- colour (E. coli 260486L, broth): Purple
- colour (E. coli 260492J, broth): Purple
- colour (E. coli 260494B, broth): Purple
- colour (E. coli 260495R, broth): Purple
- colour (E. coli 260497D, broth): Purple
- colour (E. coli 260502G, broth): Purple
- colour (E. coli 260503Z, broth): Purple
- colour (E. coli 260504N, broth): Purple
- colour (E. coli 260505Q, broth): —
- colour (E. coli 260506E, broth): Purple
- colour (E. coli 260508Y, broth): Purple
- colour (E. coli 260509W, broth): Purple
- colour (E. coli 260510R, broth): Purple
- colour (E. coli 260511X, broth): Purple
- colour (E. coli 260514G, broth): —
- colour (E. coli 260515Z, broth): Purple
- colour (E. coli 260521S, broth): Purple
- colour (E. coli 260522Z, broth): Purple
- colour (E. coli 260532S, broth): Purple
- colour (E. coli 260533G, broth): Purple
- colour (E. coli 260536Q, broth): Purple
- colour (E. coli 260537E, broth): —
- colour (E. coli 260538H, broth): —
- colour (E. coli 260539Y, broth): Purple
- colour (E. coli 260541R, broth): Purple
- colour (E. coli 260545G, broth): Purple
- colour (E. coli 260547N, broth): Purple
- colour (E. coli 260548Q, broth): Purple
- colour (E. coli 260549E, broth): Purple
- colour (E. coli 260553X, broth): —
- colour (E. coli 260554D, broth): Purple
- colour (E. coli 260555L, broth): Purple
- colour (E. coli 260563B, broth): Purple
- colour (E. coli 260564R, broth): Purple
- colour (E. coli 260578D, broth): —
- colour (E. coli 2603121P, broth): —
- colour (E. coli 2604399E, broth): Purple
- colour (E. coli O157 non-toxigenic, broth): —
- colour of positive solutions (broth with FAC, in words): purple solutions
